According to PMC7397249, “Properly Substituted Cyclic Bis-(2-bromobenzylidene) Compounds Behaved as Dual p300/CARM1 Inhibitors and Induced Apoptosis in Cancer Cells” (Molecules, 2020):

Columns and labels:
[1] = test system: p300; test: Western blot of acetylation marks (p300 inhibition) in MCF-7 cells; format: cell-based, human; settings: 5 μM, 30 h
Protocol: (§1) In MCF-7 cells, the levels of acetyl-H3, acetyl-H4, H3K27me3, and H3R17me2 were detected by western blot analyses as functional tests for p300 (acH3 and acH4), EZH2 (H3K27me3) and CARM1 (H3R17me2) inhibition in cells, respectively (Figure 5).
(§2) The procedures were performed as described in [30, 31]. Primary antibodies used were: Ac-H3 (Millipore, Milan, Italy); Ac-H4 (Millipore, Milan, Italy); Ac-H3K9-14 (Diagenode, Ougrée, Belgium); Ac-α-tubulin (Sigma-Aldrich), H3K27me3 (Diagenode); H3R17me2 (Diagenode); EZH2 (Abcam, Cambridge, UK). H3 (Sigma-Aldrich), H4 (Abcam), GAPDH (Sigma) and ERKs (Santa Cruz, Biotechnology, TX, USA) were used to normalize the total protein extracts (see also Supplementary Material).

[2] = test system: U937 cells; test: Cell cycle and apoptosis (sub-G1) analysis by FACS in U937 cells; format: cell-based, human; settings: 5 μM, 30 h
Protocol: Compounds 4a–n were tested at 5 μM for 30 h in NB4 […] and U937 AML cells among hematological cancers, and in MCF-7 breast cancer and SH-SY5Y neuroblastoma cells among solid cancers, to determine their effects in cell cycle and apoptosis induction.
In the same cell lines, the induction of apoptosis has been evaluated through the percentage of the sub-G1 peaks.
(§3) For colorimetric exclusion, the cells (2 × 10^5 cells/mL) were plated in multiwells in triplicate. After stimulations at different times and concentrations, cells were diluted in the ratio 1:1 in Trypan Blue (Sigma) and counted with an optical microscope. For cell cycle analyses, cells were plated (2 × 10^5 cells/mL) and were harvested, centrifuged at 1200 rpm for 5 min and resuspended in 500 μL of a hypotonic solution containing 1× PBS, Sodium Citrate 0.1%, 0.1% NP-40, RNAase A and […] Propidium Iodide (PI). After 30 min at room temperature (RT) in the dark, samples were acquired by FACS-Calibur (BD Bioscences, San Jose, CA, USA) using CellQuest software (BD Biosciences). The percentage in different phases of the cell cycle was determined by ModFit LT V3 software (Verity). All experiments were performed in triplicate. Cell death was measured as percentage of cells in sub-G1 phase as in [30].

[3] = test system: EZH2; test: Western blot of H3K27me3 (EZH2) in MCF-7 cells; format: cell-based, human; settings: 5 μM, 30 h
Protocol: as §1, §2

[4] = test system: CARM1; test: Western blot of H3R17me2 (CARM1) in MCF-7 cells; format: cell-based, human; settings: 5 μM, 30 h
Protocol: as §1, §2

[5] = test system: EZH2; test: Western blot of H3K27me3 (EZH2 catalytic activity) in NB4 cells; format: cell-based, human; settings: 5 μM, 30 h
Protocol: (§4) Western blot analyses were carried out on NB4 and MCF-7 cells treated with a subset of compounds 4 (5 μM, 30 h), to confirm that the observed effects are due to modulation of p300, CARM1, and eventually EZH2 activities. Suberoylanilide hydroxamic acid (SAHA), a FDA-approved HDAC inhibitor [28], and GSK-126 [29], a well-known EZH2 inhibitor, were added as internal controls. In NB4 cells, the levels of acetyl-H3 (acH3) and acetyl-H4 (acH4) as well as those of acetyl-H3K9/14 (AcH3K9/14, see Supplementary material) and of the non-histone substrate acetyl-α-tubulin (Ac-Tubulin) were detected as an index of p300 inhibition (Figure 4). In the same cell line, the levels of H3K27me3, histone mark of the EZH2 catalytic activity (Figure 4), as well as the level of the EZH2 expression (see Supplementary material) have been determined. Last, the amount of H3R17me2, the functional read-out of CARM1 inhibition, was determined (Figure 4).
(§5) The procedures were performed as described in [30, 31]. Primary antibodies used were: Ac-H3 (Millipore, Milan, Italy); Ac-H4 (Millipore, Milan, Italy); Ac-H3K9-14 (Diagenode, Ougrée, Belgium); Ac-α-tubulin (Sigma-Aldrich), H3K27me3 (Diagenode); H3R17me2 (Diagenode); EZH2 (Abcam, Cambridge, UK). […]

[6] = Cell viability in non-cancer mesenchymal progenitor cells (differential toxicity); format: cell-based; settings: human, MePR2B cells, control 100%, read-out: percentage of cell viability
Protocol: After treatment at 5 μM for 30 h, 4l and 4m reduced the percentage of cell viability to 61.2 ± 0.8 and 85.5 ± 3.7, respectively, in comparison with the control (100%).
as §3

[7] = test system: p300; test: Western blot of acetylation marks (p300 inhibition) in NB4 cells; format: cell-based, human; settings: 5 μM, 30 h
Protocol: as §4, §5

Row | Compound | levels of acetyl-H4 [1] | effect on cell cycle phases [2] | levels of H3K27me3 [3] | further results
1 | O=C1/C(=C/c2ccccc2Br)CN(C(=O)C=Cc2ccccc2)C/C1=C\c1ccccc1Br [Compound 4n, 3,5-Bis((E)-2-bromobenzylidene)-1-cinnamoylpiperidin-4-one] | decrease of the acetylation levels | arrested the cell cycle at the G1/S phase | reduction of the H3K27me3 levels | 
2 | O=C1/C(=C/c2ccccc2Br)CN(C(=O)CCc2ccccc2)C/C1=C\c1ccccc1Br [Compound 4m, 3,5-Bis((E)-2-bromobenzylidene)-1-(3-phenylpropanoyl)piperidin-4-one] |  | block in G2/M phase | reduction of the H3K27me3 levels | levels of H3R17me2 [4]: most effective; levels of H3K27me3 [5]: reduction of the H3K27me3 levels; viability at 30 h, 5 µM [6]: 85.5 ± 3.7%
3 | O=C1/C(=C/c2ccccc2Br)CN(C(=O)Cc2ccccc2)C/C1=C\c1ccccc1Br [Compound 4l, 3,5-Bis((E)-2-bromobenzylidene)-1-(2-phenylacetyl)piperidin-4-one] | decrease of the acetylation levels | block in G2/M phase |  | viability at 30 h, 5 µM [6]: 61.2 ± 0.8%
4 | O=C1/C(=C/c2ccccc2Br)CN(CCc2ccccc2)C/C1=C\c1ccccc1Br [Compound 4f, 3,5-Bis((E)-2-bromobenzylidene)-1-phenethylpiperidin-4-one] |  | block in G2/M phase |  | levels of acetyl-H3 [7]: less effective
5 | O=C1/C(=C/c2ccccc2Br)CN(CCCC(=O)c2ccccc2)C/C1=C\c1ccccc1Br [Compound 4j, 3,5-Bis((E)-2-bromobenzylidene)-1-(4-oxo-4-phenylbutyl)piperidin-4-one] | decrease of the acetylation levels |  | reduction of the H3K27me3 levels | 
6 | O=C1/C(=C/c2ccccc2Br)CN(Cc2ccccc2)C/C1=C\c1ccccc1Br [Compound 4e, 1-benzyl-3,5-bis((E)-2-bromobenzylidene)piperidin-4-one] | decrease of the acetylation levels |  | reduction of the H3K27me3 levels | 
7 | O=C1/C(=C/c2ccccc2Br)CN(C(=O)c2ccccc2)C/C1=C\c1ccccc1Br [Compound 4k, 1-Benzoyl-3,5-bis((E)-2-bromobenzylidene)piperidin-4-one] |  |  |  | levels of acetyl-α-tubulin [1]: decrease of the acetylation levels
8 | O=C1/C(=C/c2ccccc2Br)CN(CC(=O)c2ccccc2)C/C1=C\c1ccccc1Br [Compound 4h, 3,5-Bis((E)-2-bromobenzylidene)-1-(2-oxo-2-phenylethyl)piperidin-4-one] |  |  | reduction of the H3K27me3 levels | levels of H3K27me3 [5]: reduction of the H3K27me3 levels
9 | O=C1/C(=C/c2ccccc2Br)CN(CCCc2ccccc2)C/C1=C\c1ccccc1Br [Compound 4g, 3,5-Bis((E)-2-bromobenzylidene)-1-(3-phenylpropyl)piperidin-4-one] |  | arrested the cell cycle at the G1/S phase |  | levels of acetyl-H3 [7]: less effective
